Measurements taken from patent publication US20150307940A1, “MOLECULAR SIGNATURE OF CUTANEOUS PIGMENTARY SPOTS, ASSOCIATED WITH THE EXTRACELLULAR MATRIX” (L'OREAL, priority 2011, published 2015).
Where two headings read alike, the source gives them in different places. Where a SMILES comes first, the peptide text is derived from it.

Legend:
[1] = biological target: T1, LYZ, lysozyme (renal amyloidosis) (Homo sapiens, UniProt P61626); conditions: cited from earlier work
T1 sequence (P61626 19-148): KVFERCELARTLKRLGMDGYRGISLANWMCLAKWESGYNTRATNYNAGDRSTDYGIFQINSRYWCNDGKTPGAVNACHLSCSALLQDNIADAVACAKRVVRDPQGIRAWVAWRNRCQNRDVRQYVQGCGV

[2] = test system: SMAD7, SMAD family member 7; conditions: cited from earlier work
ASPN, Asporin = conditions: cited from earlier work
[3] = biological target: PLAU, plasminogen activator, urokinase (Homo sapiens, UniProt P00749); conditions: cited from earlier work
[4] = test system: BMP2, bone morphogenetic protein 2; conditions: cited from earlier work
[5] = test system: SMAD3, SMAD family member 3; conditions: cited from earlier work
[6] = test system: TGFBR2, transforming growth factor, β receptor II (70/80 kDa); conditions: cited from earlier work
[7] = biological target: T2, PLOD2, procollagen-lysine, 2-oxoglutarate 5-dioxygenase 2 (Homo sapiens, UniProt O00469); conditions: cited from earlier work
T2 sequence (O00469 26-737): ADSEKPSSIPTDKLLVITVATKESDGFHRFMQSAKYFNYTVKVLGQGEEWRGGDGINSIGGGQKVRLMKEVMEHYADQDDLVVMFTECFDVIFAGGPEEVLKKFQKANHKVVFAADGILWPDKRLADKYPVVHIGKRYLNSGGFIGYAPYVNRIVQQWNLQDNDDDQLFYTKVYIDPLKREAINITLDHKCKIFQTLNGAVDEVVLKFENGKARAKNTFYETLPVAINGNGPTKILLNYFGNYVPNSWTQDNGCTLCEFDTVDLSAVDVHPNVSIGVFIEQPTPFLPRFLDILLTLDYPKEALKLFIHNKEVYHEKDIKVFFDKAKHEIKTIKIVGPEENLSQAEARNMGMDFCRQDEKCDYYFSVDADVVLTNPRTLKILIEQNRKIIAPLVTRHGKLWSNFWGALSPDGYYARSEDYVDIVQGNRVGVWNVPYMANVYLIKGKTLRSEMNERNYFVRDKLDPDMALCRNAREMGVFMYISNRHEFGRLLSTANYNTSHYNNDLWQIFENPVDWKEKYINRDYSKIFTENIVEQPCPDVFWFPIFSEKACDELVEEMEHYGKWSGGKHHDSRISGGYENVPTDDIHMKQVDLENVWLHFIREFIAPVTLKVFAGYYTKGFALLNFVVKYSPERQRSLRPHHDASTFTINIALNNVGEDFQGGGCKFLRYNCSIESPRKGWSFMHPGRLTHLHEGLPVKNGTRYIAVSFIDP

[8] = test system: reconstructed pigmented skin (RPS); assay: Stimulation of pigmentation of reconstructed pigmented skin by treatment with TGF-beta; assay type: cell-based; conditions: 200 pg/mL TGF-β1 on equivalent dermis for 3 days, compared with control
Method: FIG. 1: This figure illustrates the Reconstructed Pigmented Skin (RPS) treatment protocol using TGF-β. In the diagram, T means “treatment with TGF-β”, in a concentration of 200 pg/mL, with 4 mM of HCl and 1 mg/mL of BSA as the vehicle. The medium was MEM 3F′ with 2% FBS. The equivalent derma were treated for 3 consecutive days. On D0i, the equivalent dermis was seeded with keratinocytes and melanocytes (K+M on the graph) and kept immersed for 7 days. The culture was then emersed for 2 weeks;
The treatment protocol for reconstructed pigmented skin (RPS) with TGF-β is illustrated in FIG. 1. It was as follows:
Equivalent dermis (lattices) containing live fibroblasts in a collagen matrix were attached to the bottom of a Petri dish (D-4) and treated with TGF-β1 (T on FIG. 1) in a concentration of 200 pg/mL (vehicle: 4 mM of HCl and 1 mg/mL of BSA; medium: MEM 3F′ with 2% FBS), for 3 days (D-3; D-2 and D-1 in FIG. 1). Next, the pigmented epidermis was reconstructed on the equivalent dermis by seeding keratinocytes and melanocytes (D0). The culture was kept immersed for 1 week and emersed for 2 weeks (FIG. 1).
Samples were removed to analyse the pigmentation: • integration and morphology of melanocytes were observed after Dopa reaction on detached epidermis; • colorimetric luminance measurement provided information regarding the degree of clarity of the samples (the lower the L*, the darker the samples); • the presence of melanin was observed after Fontana Masson staining skin sections; and • the quantity of melanin present in the epidermis was measured by image analysis.

[9] = test system: TIMP1, metallopeptidase inhibitor 1; conditions: cited from earlier work
MATN2, matrilin 2 = conditions: cited from earlier work

Q: Which “Sense of modulation: LYZ expression” value [1] does the source give for “PACAP38: form of pituitary adenylate cyclase-activating polypeptide listed beneath PACAP” here?
A: The value was “Increases”.

Q: For `O=CC(=O)C[C@H](O)[C@H](O)CO` [3-deoxyglucosone], which “Sense of modulation: SMAD7 expression” value [2] is on record?
A: Its value is “Increases”.

Q: With `N#Cc1ccc(C(c2ccc(C#N)cc2)n2cncn2)cc1` [Letrozole] as the molecule, how does the “Sense of modulation: ASPN expression” value (ASPN, Asporin) read?
A: Its value is “Increases”.

Q: Which “Sense of modulation: SMAD7 expression” value [2] does the source give for `CC(=O)N[C@@H](CO)C(=O)N[C@@H](CC(=O)O)C(=O)N[C@@H](CCCCN)C(=O)N1CCC[C@H]1C(=O)O` [N-acetyl-seryl-aspartyl-lysyl-proline] (Ac-SDKP-OH) here?
A: The value was “Increases”.

Q: With `CC(C)=CCC[C@](C)(O[C@@H]1O[C@H](CO)[C@@H](O)[C@H](O)[C@H]1O)[C@H]1CC[C@]2(C)[C@@H]1[C@H](O)C[C@@H]1[C@@]3(C)CC[C@H](O)C(C)(C)[C@@H]3[C@@H](O[C@@H]3O[C@H](CO)[C@@H](O)[C@H](O)[C@H]3O[C@@H]3OC[C@@H](O)[C@H](O)[C@H]3O)C[C@]12C` [Notoginsenoside R1] as the molecule, how does the “Sense of modulation: PLAU expression” value [3] read?
A: The value was “Increases”.

Q: With `Cc1cc(SCc2sc(-c3ccc(C(F)(F)F)c(F)c3)nc2C)ccc1OCC(=O)O` [GW0742] as the molecule, how does the “Sense of modulation: BMP2 expression” value [4] read?
A: The value was “Reduces exp”.

Q: What about the “Sense of modulation: BMP2 expression” value ([4]; listed as GW-0742) of the same molecule?
A: Its value is “reduces”.

Q: For `O=C(/C=C/c1ccc(O)c2c1[C@H](C(=O)O[C@H](Cc1ccc(O)c(O)c1)C(=O)O)[C@@H](c1ccc(O)c(O)c1)O2)O[C@H](Cc1ccc(O)c(O)c1)C(=O)O` [Salvianolic Acid B (Sal B), Salvianolic Acid B], which “Sense of modulation: SMAD3 expression” value [5] is on record?
A: The value was “Reduces”.

Q: What about the “modulation of SMAD3 ('reduces SMAD3', level not given)” value [5] of the same molecule?
A: Its value is “reduces”.

Q: And the “Sense of modulation: TGFBR2 expression” value [6]?
A: The value was “reduces”.

Q: And the “Sense of modulation: TGFBR2 expression” value ([6]; listed as Salvianolic acid B (SA-B))?
A: The value was “Reduces”.

Q: Which “Sense of modulation: PLAU expression” value [3] does the source give for `COC(=O)[C@@H](c1ccccc1Cl)N1CCc2sccc2C1` [Thienopyridine SR 25989] here?
A: Its value is “Increases”.

Q: For `N#CCCN` [beta-aminopropionitrile (bAPN), beta-aminopropionitrile], which “Sense of modulation: PLOD2 expression” value [7] is on record?
A: Its value is “Reduces”.

Q: Which results are given for `O=C([O-])Cc1ccccc1.[Na+]` [Sodium phenylacetate (NaPA), Sodium phenylacetate]?
A: Sense of modulation: PLAU expression [3]: Reduces; Sense of modulation: PLAU expression ([3]; listed as NaPA): reduces

Q: For “TGF-β1: Transforming growth factor beta 1 used to treat equivalent dermis at 200 pg/mL”, which “integration and morphology of melanocytes (Dopa reaction on detached epidermis)” value [8] is on record?
A: Its value is “still present in the epidermis and retain the correct dendritic morphology”.

Q: What about the “melanin content (Fontana Masson stained sections, quantification by image analysis)” value [8] of the same molecule?
A: Its value is “visibly increased”.

Q: And the “melanin deposits in the epidermis” value [8]?
A: The value was “higher”.

Q: And the “luminance of the samples (L*)” value ([8]; lower L* = darker)?
A: The value was “reduced”.

Q: Which “Sense of modulation: PLAU activity” value [3] does the source give for `N=C(N)c1ccc(N)cc1` [P-aminobenzamidine] here?
A: The value was “Reduces activity”.

Q: And the “Sense of modulation: PLAU activity” value ([3]; listed as p-aminobenzamidine)?
A: Its value is “reduces”.

Q: For `CCCCC(=O)N(Cc1ccc(-c2ccccc2-c2nnn[nH]2)cc1)[C@H](C(=O)O)C(C)C` [Valsartan], which “Sense of modulation: TIMP1 expression” value [9] is on record?
A: Its value is “Reduces”.

Q: What about the “Sense of modulation: TIMP1 expression” value ([9]; listed as valsartan) of the same molecule?
A: The value was “reduces”.

Q: For `O=C1CCC[C@@H]2[C@H]3CCC[N+]4([O-])CCC[C@@H](CN12)[C@@H]34` (some centres unmarked) [Oxymatrine], which “modulation of SMAD3 ('reduces SMAD3', level not given)” value [5] is on record?
A: The value was “reduces”.

Q: What about the “Sense of modulation: SMAD7 expression” value [2] of the same molecule?
A: Its value is “Increases”.

Q: What does the source list for `NC(=O)c1ccc(-c2nc(-c3ccc4c(c3)OCO4)c(-c3ccccn3)[nH]2)cc1` [SB-431542]?
A: Sense of modulation: SMAD3 expression [5]: Reduces; modulation of SMAD3 ('reduces SMAD3', level not given) [5]: reduces

Q: For Vitamin K2 menaquinone, which “Sense of modulation: MATN2 expression” value (MATN2, matrilin 2) is on record?
A: Its value is “Increases”.

Q: Which “Sense of modulation: ASPN expression” value (ASPN, Asporin) does the source give for `CC(C)(C#N)c1cc(Cn2cncn2)cc(C(C)(C)C#N)c1` [anastrozole] here?
A: Its value is “Increases”.
